Like-named read-outs stand apart in the source and are kept apart here.

For data set [1], the system named is rats. As to the kind of experiment: Pharmacological characteristics at equivalent doses (2×ED50) in rats. The following applies: 2×ED50, tail vein; for Adverse reactions: Red urine (incidence): DMSO solution (DMSO alone 10/10); for Onset time: time of LORR. The method, boiled down:
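Anesthesia onset, recorded as time of LORR, was measured after a 2×ED50 tail-vein injection (0.6 mL, 0.1 mL/s). Animals were male Sprague-Dawley rats of 250-300 g, n=8.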

Data set [2] concerns rats. As to the kind of experiment: Loss of righting reflexes (LORR) assay in rats, ED50 by up and down method. The class given is in vivo, rat. The following applies: tail vein, class symbols. The method, boiled down: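 ED50 obtained by up-and-down dosing, with righting-reflex loss over 30 s counted as general anesthesia. Compounds injected into the tail vein (0.1 mL/s) of male Sprague-Dawley rats weighing 250-300 g.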

Data set [3] concerns rats. The class given is in vivo, rat. The following applies: rats of the MAP/HR figures, 2×ED50, tail vein.
Data set [4] concerns secretion of corticosterone, H295R cell line. As to the kind of experiment: cells. The class given is cell-based. The following applies: for EC50: read-out: EC50 (Corticosterone). The procedure: (§1) The Effects of the Compounds on Adrenocortical Function In Vitro Test
(§2) Then secretion of the cortisol and corticosterone in the supernatant, was measured using HPLC-MS/MS method to determine whether the compounds of the present invention had adrenotoxic potential.

For data set [5], the system named is secretion of cortisol, H295R cell line. As to the kind of experiment: cells. The class given is cell-based. The following applies: for EC50: read-out: EC50 (Cortisol). The procedure:
as §1, §2

The subject of data set [6] is rats. The procedure:
Adult male Sprague-Dawley rats (250-300 g) were selected for the experiment. […] The anesthesia effects of the compounds were assessed in rats using a LORR assay and a period >30 s was considered as an indicator of general anesthesia. Then the up and down method was used to determine 50% effective dose (ED50). The drugs were administered through the tail vein of rats in a volume of 0.6 mL and at a rate of 0.1 mL/s.

For data set [7], the system named is rats. The class given is in vivo, rat. The following applies: rats of the MAP/HR figures, 2×ED50, tail vein; same value in min. The gist of the method: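 Hemodynamic stability judged from mean arterial pressure and heart rate, recorded at 15 s intervals over 30 min pre- and post-dose. Dosing was through a tail-vein indwelling catheter in rats carrying implanted aortic/ventricular catheters and ECG wires, operated ≥1 week earlier.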

The subject of data set [8] is rats. The following applies: continuous tail vein infusion at 2×MIR, LORR maintained 1 hour, Table E4. The procedure:
Pharmacological Effects of the Compounds on Continuous Infusion in Rats
Adult male Sprague-Dawley rats with body weight ranging from 250 to 300 gm were selected for continuous infusion test. […] Time to recovery of righting reflex from stopping infusion, and time to fully awake from stopping infusion were recorded.

In data set [9] the target is T1, 11-β-hydroxylase (Rattus norvegicus, UniProt P15393).
T1 sequence (P15393 25-499): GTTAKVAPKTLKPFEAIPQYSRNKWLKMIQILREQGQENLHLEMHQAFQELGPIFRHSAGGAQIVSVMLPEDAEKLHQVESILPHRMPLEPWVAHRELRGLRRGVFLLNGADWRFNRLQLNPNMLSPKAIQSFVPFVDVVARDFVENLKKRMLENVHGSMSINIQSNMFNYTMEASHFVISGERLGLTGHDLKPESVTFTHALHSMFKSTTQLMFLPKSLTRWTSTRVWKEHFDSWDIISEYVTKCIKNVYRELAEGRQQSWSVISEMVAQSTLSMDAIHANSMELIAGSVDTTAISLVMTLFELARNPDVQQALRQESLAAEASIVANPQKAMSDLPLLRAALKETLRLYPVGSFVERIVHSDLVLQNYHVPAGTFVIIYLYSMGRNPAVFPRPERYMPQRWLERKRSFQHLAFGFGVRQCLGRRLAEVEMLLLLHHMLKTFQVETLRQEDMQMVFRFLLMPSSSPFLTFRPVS
The following applies: compared with etomidate; cited from earlier work.

The mark [10] stands for this setting: H295R cell line, 0.1-10000 nM, HPLC-MS/MS, Table E3.
Where [11] appears, read: H295R cell line, 0.1-10000 nM, HPLC-MS/MS, Table D3.
Setting [12] is: H295R, 0.1-10000 nM, HPLC-MS/MS.

As a reminder, the EC50 is the concentration at which the effect is half-maximal. Consider `C=C=CC1(OC(=O)c2c(F)ncn2[C@H](C)c2ccccc2)COC1` [Compound E37], for which, in [1], the “Righting reflex duration” value turned out to be 1.75 ± 0.26 min, the “Sedation duration (mg/kg)” value turned out to be 3.66 ± 1.12, the “Adverse reactions: Red urine (incidence)” value was “(8/8)” and the “Onset time” value came out at 0.25 ± 0.15 min. In addition, the “ED50 (mg/kg)” value in [2] was “A (A indicates that the measured ED50 is in the range of 0.01-0.10 mg/kg (including 0.01 and 0.10 mg/kg).)”. The “recovery time of the test animals' righting reflex” value in data set [3] worked out at 100 s. Further, in data set [4] (setting [10]), the “Corticosterone as an indicator to determine the presence of inhibition” value (“Corticosterone as an indicator … of inhibition” for short) is recorded as 0 and the EC50 was above 10 µM. In addition, in data set [5] (setting [10]), the “Cortisol as an indicator to determine the presence of inhibition” value (shortened to “Cortisol as an indicator … of inhibition”) is recorded as 0 and the EC50 was above 10 µM. In data set [6], the Approximate therapeutic index is listed as above 30 and the “Minimal lethal dose” value is on record as above 0.6 mg/kg. In addition, in data set [7], the “recovery time of the test animals' righting reflex” value amounted to 1.67 min. In data set [8], the Onset time was in the range of 2 to 3 min; the “Recovery time after stopping infusion” value is 7 to 10 min; the “Types and incidence of adverse reactions” value is recorded as “Tremor (2/6)”.

Consider `C[C@H](c1ccccc1)n1cnc(F)c1C(=O)OC1(C)COC1` [Compound E38], for which, in data set [1], the “Righting reflex duration” value is 1.96 ± 1.39 min, the “Sedation duration (mg/kg)” value was determined as 4.96 ± 1.66, the “Adverse reactions: Red urine (incidence)” value is “(8/8)” and the “Onset time” value came to 0.25 ± 0.13 min. In addition, the “ED50 (mg/kg)” value in data set [2] is reported as “B (B means that the measured ED50 is in the range of 0.10-0.50 mg/kg (excluding 0.10 mg/kg, including 0.50 mg/kg).)”. The “recovery time of the test animals' righting reflex” value in data set [3] came to 122 s. In addition, in [4] (setting [10]), the “Corticosterone as an indicator … of inhibition” value was determined as 0 and the EC50 is above 10 µM. For the same compound, in [5] (setting [10]), the “Cortisol as an indicator … of inhibition” value turned out to be 0 and the EC50 was above 10 µM. Also, in data set [6], the Approximate therapeutic index was above 20 and the “Minimal lethal dose” value is recorded as above 7 mg/kg. In addition, the “recovery time of the test animals' righting reflex” value in [7] is 2.03 min. In data set [8], the Onset time lay in the range of 2 to 3 min; the “Recovery time after stopping infusion” value was in the range of 8 to 13 min; the “Types and incidence of adverse reactions” value was “Tremor (3/6)”.

As to `C[C@H](c1ccccc1)n1cncc1C(=O)O` [Etomidate acid, etomidate acid, reference compound], the “inhibitory effect on 11-β-hydroxylase” value in [9] is given as “little inhibitory effect”. The “Corticosterone as an indicator … of inhibition” value in [4] (setting [11]) came to 0; in data set [4] (setting [10]) it was 0; in data set [4] (H295R, Table A3) it was 0; in [4] (H295R, Table B3) it was 0; in data set [4] (H295R, Table C3) it was 0. Moreover, the EC50 in [4] (setting [11]), in data set [4] (setting [10]), in data set [4] (setting [12]), in data set [5] (setting [11]), in data set [5] (setting [10]) and in data set [5] (setting [12]) was above 10 µM throughout. Further, the “Cortisol as an indicator … of inhibition” value in data set [5] (setting [11]) is given as 0; in data set [5] (setting [10]) it was 0; in data set [5] (H295R, Table A3), 0; in data set [5] (H295R, Table B3) it was 0; in data set [5] (H295R, Table C3), 0.

The values above are taken from patent US11434205B2, “Substituted imidazole carboxylate derivatives and the use thereof” (priority 2018, dated 2022).
